Test results as given in patent publication US20260125359A1, “HETEROARYL COMPOUNDS AS MULTI-TARGET PROTEIN KINASE INHIBITORS” (FUJIAN HAIXI PHARMACEUTICALS CO., LTD., priority 2023, published 2026).

Test system: M-NFS-60 cells
Test: M-NFS-60 cell in vitro assay (CCK, 48 h, M-CSF factor medium)
Type: cell-based
Settings: M-NFS-60 cells; read-out: M-NFS-60cellassay IC50
Summary of the method: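 Mouse M-NFS-60 cells (2000/well) in RPMI-1640 with 10% serum and M-CSF (25 ng/ml) were pre-incubated 4 h, then exposed to DMSO-diluted compound gradients for 48 h at 5% CO2. Viability read by CCK, 2 h, OD 450 nm; IC50 from curve fitting.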

Compound	IC50 [nM]
COc1cccc(C(=O)Nc2cccc3c2CCC3Oc2cc(Br)cnc2N)c1 (stereo not drawn) [Compound 1f, N-(1-((2-amino-5-bromopyridin-3-yl)oxy)-2,3-dihydro-1H-inden-4-yl)-3-methoxybenzamide]	50 to 200
Cn1ncc2ncc(O[C@H]3CCc4c(C(=O)Nc5cccc(C6CC6)c5)ccc(F)c43)cc21 [Compound 85, (S)—N-(3-cyclopropylphenyl)-7-fluoro-1-((1-methyl-1H-pyrazolo[4,3-b]pyridin-6-yl)oxy)-2,3-dihydro-1H-indene-4-carboxamide]	< 50
COc1cccc(C(=O)Nc2cccc3c2OCCC3Oc2cc(-c3cnn(C)c3)cnc2N)c1 (stereo not drawn) [Compound 2c]	200 to 500
CN(C)Cc1cc(NC(=O)c2cccc3c2CC[C@@H]3Oc2cncc(-c3cnn(C)c3)c2)ccc1C(F)(F)F [Compound 19q]	< 50
Cn1cc(-c2cncc(N[C@H]3CCc4c(Nc5cc(C(C)(C)C)on5)ccc(F)c43)c2)cn1 [Compound 42s]	< 50
Cn1cc(-c2cncc(O[C@H]3CCc4c(C(=O)Nc5ccc6c(c5)CNC6)cccc43)c2)cn1 [Compound 19u]	> 500
CN1CCN(Cc2cccc(NC(=O)c3cccc4c3CC[C@@H]4Nc3cncc(-c4cnn(C)c4)c3)c2)CC1 [Compound 14ar]	200 to 500
Cn1cc(-c2cncc(N[C@H]3CCc4c(NC(=O)Nc5ccccc5F)cccc43)n2)cn1 [Compound 65e]	< 50
Cn1cc2ncc(O[C@H]3CCc4c(C(=O)Nc5cccc(C(F)(F)F)c5F)cccc43)cc2n1 [Compound 76av]	< 50
Cn1cc(-c2cncc(N[C@H]3CCc4c(NC(=O)N5CCC(C)(C)C5=O)cccc43)n2)cn1 [Compound 64, (S)-3,3-dimethyl-N-(1-((6-(1-methyl-1H-pyrazol-4-yl)pyrazin-2-yl)amino)-2,3-dihydro-1H-inden-4-yl)-2-oxopyrrolidine-1-carboxamide]	200 to 500
Cc1cccc(C(=O)Nc2cccc3c2CC[C@@H]3Nc2cncc(N(C)CCN(C)C)n2)c1 [Compound 32, (S)—N-(1-((6-((2-(dimethylamino)ethyl)(methyl)amino)pyrazin-2-yl)amino)-2,3-dihydro-1H-inden-4-yl)-3-methylbenzamide]	> 500
Cc1cccc(C(=O)Nc2cccc3c2CC[C@@H]3Nc2cnc3cn(C)nc3c2)c1F [Compound 82, (S)-2-fluoro-3-methyl-N-(1-((2-methyl-2H-pyrazolo[4,3-b]pyridin-6-yl)amino)-2,3-dihydro-1H-inden-4-yl)benzamide]	< 50
Cn1cc2ncc(N[C@H]3CCc4c(Nc5ncc(C(C)(C)C)s5)cccc43)cc2n1 [Compound 91h]	< 50
Cn1cc(-c2cncc(O[C@H]3CCc4c3ccc(F)c4C(=O)Nc3cccc(C4CC4)c3)c2)cn1 [Compound 53, (S)—N-(3-cyclopropylphenyl)-5-fluoro-1-((5-(1-methyl-1H-pyrazol-4-yl)pyridin-3-yl)oxy)-2,3-dihydro-1H-indene-4-carboxamide]	50 to 200
Cc1cccc(C(=O)Nc2cccc3c2CC[C@H]3Nc2cncc(-c3cnn(C)c3)n2)c1 [Compound 25b]	> 500
Cn1cc(-c2cncc(N[C@H]3CCc4c(C(=O)Nc5ccccc5F)cccc43)n2)cn1 [Compound 27n]	< 50
CN(c1cnc2cnn(C)c2c1)[C@H]1CCc2c(Nc3cc(C(C)(C)C)on3)cccc21 [Compound 94, (S)—N^4-(5-(tert-butyl)isoxazol-3-yl)-N^1-methyl-N^1-(1-methyl-1H-pyrazolo[4,3-b]pyridin-6-yl)-2,3-dihydro-1H-indene-1,4-diamine]	200 to 500
COc1ccc(F)c(NC(=O)c2cccc3c2CC[C@@H]3Oc2cnc3cn(C)nc3c2)c1 [Compound 76ay]	< 50
Cn1cc2ncc(N[C@H]3CCc4c(Nc5noc(C67CC(C6)C7)n5)cccc43)cc2n1 [Compound 93q]	< 50
Cn1ncc2ncc(O[C@H]3CCc4c(C(=O)Nc5nn(C)c6ccccc56)cccc43)cc21 [Compound 76ao]	< 50
Cc1cc(NC(=O)c2cccc3c2CC[C@@H]3Oc2cnc3cnn(C)c3c2)ccc1F [Compound 76am]	< 50
Cc1cccc(C(=O)Nc2ccc(F)c3c2CCC3Nc2cncc(-c3cnn(C)c3)c2)c1 (stereo not drawn) [Compound 44b]	< 50
Cn1cc2ncc(O[C@H]3CCc4c(C(=O)Nc5ccccc5F)cccc43)cc2n1 [Compound 76au]	< 50
CN(C)Cc1cccc(C(=O)Nc2cccc3c2CC[C@@H]3Oc2cc(-c3cnn(C)c3)cnc2N)c1 [Compound 3j]	> 500
Cn1cc2ncc(N[C@H]3CCc4c(Nc5noc(C6(CO)CC6)n5)cccc43)cc2n1 [Compound 93e]	50 to 200
Cn1cc(-c2cncc(N[C@H]3CCc4c(C(=O)Nc5ccc(Cl)c(C(F)(F)F)c5)cccc43)c2)cn1 [Compound 14ad]	< 50
CN(c1cnc2cnn(C)c2c1)[C@H]1CCc2c(C(=O)Nc3cncc(Cl)c3)cccc21 [Compound 80e, (S)—N-(5-chloropyridin-3-yl)-1-(methyl (1-methyl-1H-pyrazolo[4,3-b]pyridin-6-yl)amino)-2,3-dihydro-1H-indene-4-carboxamide]	< 50

Compound	IC50 [nM]
Cn1cc(-c2cncc(N[C@H]3CCc4c(NC(=O)c5cccc(CN6CCCC6)c5)cccc43)c2)cn1 [Compound 28b]	> 500
Cn1ncc2ncc(O[C@H]3CCc4c(C(=O)Nc5cccc(C6CC6)c5F)cccc43)cc21 [Compound 76bc]	< 50
Cn1cc(-c2cncc(N[C@H]3CCc4c(Nc5ccn(C(C)(C)C)n5)cccc43)n2)cn1 [Compound 38, (S)—N^4-(1-(tert-butyl)-1H-pyrazol-3-yl)-N^1-(6-(1-methyl-1H-pyrazol-4-yl)pyrazin-2-yl)-2,3-dihydro-1H-indene-1,4-diamine]	50 to 200
CN1CCN(c2ccc(NC(=O)c3cccc4c3CC[C@@H]4Nc3cncc(-c4cnn(C)c4)c3)cc2)CC1 [Compound 14aq]	200 to 500
Cn1cc(-c2cc(N[C@H]3CCc4c(C(=O)Nc5cccc(C6CC6)c5)cccc43)ccn2)cn1 [Compound 57, (S)—N-(3-cyclopropylphenyl)-1-((2-(1-methyl-1H-pyrazol-4-yl)pyridin-4-yl)amino)-2,3-dihydro-1H-indene-4-carboxamide]	> 500
Cn1cc(-c2cncc(N[C@H]3CCc4c(NCC5CCCCC5)cccc43)n2)cn1 [Compound 60b]	> 500
Cn1cc(-c2cncc(NC3CC(O)c4c(NC(=O)c5ccc(C(F)(F)F)cc5)cccc43)c2)cn1 (stereo not drawn) [Compound 71a, N-(3-hydroxy-1-((5-(1-methyl-1H-pyrazol-4-yl)pyridin-3-yl)amino)-2,3-dihydro-1H-inden-4-yl)-4-(trifluoromethyl)benzamide]	50 to 200
Cn1cc2ncc(N[C@H]3CCc4c(Nc5nc(C(C)(C)C)cs5)cccc43)cc2n1 [Compound 91i]	< 50
Cn1cc(-c2cncc(N[C@H]3CCc4c(Nc5nc(C(C)(C)C)cs5)cccc43)n2)cn1 [Compound 36c]	< 50
Cc1cccc(C(=O)Nc2cccc3c2CCC3Nc2cncc(-c3cnn(C)c3)c2)c1 (stereo not drawn) [Compound 8, 3-methyl-N-(1-((5-(1-methyl-1H-pyrazol-4-yl)pyridin-3-yl)amino)-2,3-dihydro-1H-inden-4-yl)benzamide]	< 50
Cn1cc(-c2cncc(O[C@H]3CCc4c(C(=O)Nc5ccc(C(F)(F)F)cc5)cccc43)c2)cn1 [Compound 17, (S)-1-((5-(1-methyl-1H-pyrazol-4-yl)pyridin-3-yl)oxy)-N-(4-(trifluoromethyl)phenyl)-2,3-dihydro-1H-indene-4-carboxamide]	< 50
Cn1cc(-c2cncc(N[C@H]3CCc4c(NC(=O)c5ccc6c(c5)OC(F)(F)O6)cccc43)n2)cn1 [Compound 24, (S)-2,2-difluoro-N-(1-((6-(1-methyl-1H-pyrazol-4-yl)pyrazin-2-yl)amino)-2,3-dihydro-1H-inden-4-yl)benzo[d][1,3]dioxole-5-carboxamide]	< 50
Cc1ncc(-c2cnn(C)c2)cc1O[C@H]1CCc2c(C(=O)Nc3ccc(C(F)(F)F)cc3)cccc21 [Compound 19w]	200 to 500
Cn1cc(-c2cnc(N)c(O[C@H]3CCc4c(C(=O)Nc5cccc(CN6CCCC6)c5)cccc43)c2)cn1 [Compound 5c]	50 to 200
Cn1cc(-c2cncc(N[C@H]3CCc4c(Nc5cnn(C(C)(C)C)c5)cccc43)n2)cn1 [Compound 39a]	> 500
CN1CCN(Cc2ccc(NC(=O)c3cccc4c3CC[C@@H]4Nc3cncc(-c4cnn(C)c4)c3)cc2)CC1 [Compound 14aj]	50 to 200
Cn1ncc2ncc(O[C@H]3CCc4c(C(=O)Nc5cccc(C6CC6)c5)cccc43)cc21 [Compound 76ab]	< 50
Cc1cccc(C(=O)Nc2cc(F)cc3c2CCC3Nc2cncc(-c3cnn(C)c3)c2)c1 (stereo not drawn) [Compound 44a]	50 to 200
Cn1cc2ncc(N[C@H]3CCc4c(Nc5noc(C(C)(C)C)n5)cccc43)cc2n1 [Compound 93i]	< 50
Cc1cc(NC(=O)c2cccc3c2CC[C@@H]3Oc2cnc3cn(C)nc3c2)ccc1F [Compound 76ar]	< 50
CN1Cc2ccc(NC(=O)c3cccc4c3CC[C@@H]4Oc3cncc(-c4cnn(C)c4)c3)cc2C1 [Compound 19v]	200 to 500
Cc1cccc(C(=O)Nc2ccc(F)c3c2CC[C@@H]3Nc2cncc(-c3cnn(C)c3)c2)c1 [Compound 45, (S)—N-(7-fluoro-1-((5-(1-methyl-1H-pyrazol-4-yl)pyridin-3-yl)amino)-2,3-dihydro-1H-inden-4-yl)-3-methylbenzamide]	< 50
Clc1cncc(N[C@H]2CCc3c(Nc4nc5c(s4)CCCC5)cccc32)c1 [Compound 42f]	> 500
Cn1cc(-c2cncc(N[C@@H]3CCc4c(NC(=O)c5cccc(C(F)(F)F)c5F)cccc43)n2)cn1 [Compound 25d]	> 500
COc1ccc(F)c(NC(=O)c2cccc3c2CC[C@@H]3N(C)c2cnc3cn(C)nc3c2)c1 [Compound 80p]	< 50
Cn1cc(-c2cncc(N[C@H]3CCc4c(Nc5nc(C(C)(C)C)cs5)ccc(F)c43)c2)cn1 [Compound 42t]	50 to 200
CC(C)(C)c1cc(Nc2cccc3c2CC[C@@H]3Nc2cncc(Cl)c2)n[nH]1 [Compound 42e]	> 500
